This is an account of results in ChEMBL document CHEMBL5634089, “Design, synthesis and evaluation of 2-pyrimidinylindole derivatives as anti-obesity agents by regulating lipid metabolism” (Eur J Med Chem, 2023).

Series [1] in a line: AUC (0 to infinity) in Sprague-Dawley rat at 2 mg/kg, iv administered for 24 hrs by LC-MS/MS analysis. The class given is ADME, organism-based. As to conditions: in vivo.
The subject of series [2] is Mus musculus. Description: Anti-obesity activity in high-fat and high-cholesterol diet induced C57BL/6J mouse assessed as reduction in liver damage by measuring reduction in alkaline phosphatase level in serum at 20 mg/kg, ip administered every day for 6 weeks. The class given is functional, organism-based.
A short description of series [3]: Apparent volume of distribution during terminal phase in Sprague-Dawley rat at 20 mg/kg, po administered for 24 hrs by LC-MS/MS analysis. The class given is ADME, organism-based. As to conditions: in vivo, read-out: Vz/F.
Series [4] deals with Mus musculus. Description: Anti-obesity activity in high-fat and high-cholesterol diet induced C57BL/6J mouse assessed as reduction in liver damage by measuring reduction in aspartate aminotransferase level in serum at 20 mg/kg, ip administered every day for 6 weeks. The class given is functional, organism-based.
Series [5] relates to 3T3-L1. Description: Anti-adipogenic activity against mouse 3T3-L1 cells assessed as decrease in ATP citrate lyase mRNA expression at 0.2 to 0.8 uM incubated for 3 days by RT-PCR analysis. The class given is functional, cell-based. The following applies: dose 0.2-0.8 µM, time 3.0 day.
Series [6] relates to Mus musculus. Description: Anti-obesity activity in high-fat and high-cholesterol diet induced C57BL/6J mouse assessed as reduction in liver damage by measuring reduction in alanine aminotransferase level in serum at 20 mg/kg, ip administered every day for 6 weeks. The class given is functional, organism-based.
In series [7] the test system is Mus musculus. Description: Anti-obesity activity in high-fat and high-cholesterol diet induced C57BL/6J mouse assessed as reduction in serum glucose level at 20 mg/kg, ip measured after 3 weeks by GTT analysis. The class given is functional, organism-based.
The subject of series [8] is Mus musculus. Description: Anti-obesity activity in high-fat and high-cholesterol diet induced C57BL/6J mouse model assessed as reduction in body weight at 20 mg/kg, ip administered every day for 6 weeks and measured daily relative to control. Set-up: scale not given: the % may be the effect or the level left. The class given is functional.
Series [9] in a line: Therapeutic index, ratio of IC50 for cytotoxicity against mouse 3T3-L1 cells to EC50 for anti-adipogenic in mouse 3T3-L1 cells. The class given is toxicity, cell-based. As to conditions: read-out: Ratio IC50/EC50.
Series [10] concerns 3T3-L1. Description: Anti-adipogenic activity against mouse 3T3-L1 cells assessed as increase in Acsl1 mRNA expression at 0.2 to 0.8 uM incubated for 3 days by RT-PCR analysis. The class given is functional, cell-based. The following applies: dose 0.2-0.8 µM, time 3.0 day.
Series [11] deals with 3T3-L1. Description: Anti-adipogenic activity against mouse 3T3-L1 cells assessed as increase in Cpt1 alpha mRNA expression at 0.2 to 0.8 uM incubated for 3 days by RT-PCR analysis. As to conditions: dose 0.2-0.8 µM, time 3.0 day. The class given is functional, cell-based.
Series [12] has as its system 3T3-L1. Description: Anti-adipogenic activity in mouse 3T3-L1 cells assessed as lipid-lowering activity measured after 9 days by Oil Red O staining based microplate reader analysis. The class given is functional, cell-based. The following applies: 3T3-L1, 216 h.
The nature of series [13]: MRT (0 to t) in Sprague-Dawley rat at 2 mg/kg, iv administered for 24 hrs by LC-MS/MS analysis. The following applies: in vivo. The class given is ADME, organism-based.
The subject of series [14] is Mus musculus. Description: Anti-obesity activity in high-fat and high-cholesterol diet induced C57BL/6J mouse assessed as attenuation of fibrosis in liver at 20 mg/kg, ip administered every day for 6 weeks by Sirius red staining based microscopic analysis. The class given is functional, organism-based.
A short description of series [15]: Oral bioavailability (0 to t) in Sprague-Dawley rat at 20 mg/kg administered for 24 hrs by LC-MS/MS analysis. The class given is ADME, organism-based. The following applies: in vivo.

Activity calls are given as the source filed them. The calls are words filed in the database; no cut-off is given here.

In series [1], `CC(=O)c1c(-c2nccc(NCCN3CCCC3)n2)[nH]c2ccccc12` gave an AUC(0-inf) of 225 ng·h/mL. In addition, the result with Mus musculus [2], in the series with Mus musculus [4], with 3T3-L1 [5], in the series with Mus musculus [6], with Mus musculus [7] and in the series on 3T3-L1 [10] was Active. For the same compound, the outcome with 3T3-L1 [11] and with Mus musculus [14] was Active. Further, the Vd/F in series [3] was 65.2 L/kg. Also, in the series on Mus musculus [8], the Activity is 17.4%. For the same compound, in [9], the selectivity ratio turned out to be 255. In the series on 3T3-L1 [12], the EC50 amounted to 106 nM. Also, the mean residence time MRT last at 24 h in series [13] worked out at 1.6 h. The bioavailability in [15] amounted to 63%.

The term AUC(0-inf) denotes total exposure, with the tail of the curve extrapolated. In general, EC50 refers to the concentration needed to bring the measured effect to its halfway point. The term MRT last denotes the average time that molecules of a dose stay in the body. The term bioavailability denotes dose-corrected exposure relative to a reference, in per cent.
